Experiments:
[1] = Half life in iv dosed rat; format: ADME, organism-based; conditions: in vivo
[2] = Oral bioavailability in rat; format: ADME, organism-based; conditions: in vivo

- half-life [1]: 4.12 days
- bioavailability [2]: 21%
SMILES: CCCN(CCC)CCCCN(C)Cc1ccc(CN(Cc2ncc[nH]2)Cc2nccn2C)cc1

Source: ChEMBL document CHEMBL1240366, “Blockade of X4-tropic HIV-1 cellular entry by GSK812397, a potent noncompetitive CXCR4 receptor antagonist” (Antimicrob Agents Chemother, 2010)
